The experiment concerns the target T1, Bifunctional epoxide hydrolase 2 (Homo sapiens, UniProt P34913).
T1 sequence (P34913 whole entry): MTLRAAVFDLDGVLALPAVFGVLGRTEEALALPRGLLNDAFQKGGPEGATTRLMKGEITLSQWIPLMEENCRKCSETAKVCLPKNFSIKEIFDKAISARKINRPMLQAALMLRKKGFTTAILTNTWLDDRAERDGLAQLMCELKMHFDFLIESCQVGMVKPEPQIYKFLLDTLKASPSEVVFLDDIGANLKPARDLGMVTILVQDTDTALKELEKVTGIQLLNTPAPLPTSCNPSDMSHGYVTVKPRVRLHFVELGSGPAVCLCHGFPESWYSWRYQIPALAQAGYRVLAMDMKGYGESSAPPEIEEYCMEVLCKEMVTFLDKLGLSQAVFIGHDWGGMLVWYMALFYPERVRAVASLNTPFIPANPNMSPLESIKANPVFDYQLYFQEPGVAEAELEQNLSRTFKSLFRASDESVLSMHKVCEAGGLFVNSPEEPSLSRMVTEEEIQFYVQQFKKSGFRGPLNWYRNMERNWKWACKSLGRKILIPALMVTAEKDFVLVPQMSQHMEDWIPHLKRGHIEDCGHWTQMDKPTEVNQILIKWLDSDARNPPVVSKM
Description: Inhibition of sEH (unknown origin) expressed in baculovirus expression system incubated for 1 hr.

Turning to `C[C@@H](C(=O)O)[C@H]1Cc2c(c(O)c3ccccc3c2O[C@@H]2O[C@H](CO)[C@@H](O)[C@H](O)[C@H]2O)C(=O)O1`, the concentration for half-maximal inhibition (IC50) worked out at 600 nM.

Source of the values: ChEMBL document CHEMBL4840331, “Configurational Assignment of a Flexible Benzo[g]isochromene Stereodiad from Rubia philippinensis and Inhibition of Soluble Epoxide Hydrolase Activity” (J Nat Prod, 2021).
